Some test systems named below: BT-549 breast; HL-60(TB) leukemia; HT29 colon; NCI-H460 lung; OVCAR-5 ovarian; SK-MEL-2 melanoma; SN12C renal; T-47D breast; U251 CNS; UACC-257 melanoma.
What all share (test): NCI-60 cell line screen, 48 h

Molecules are shown by their SMILES. Several values for one entry are separate records, joined by “and”; a condition that tells them apart may be missing. Identical values can stand only once.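 1) Cells in 96-well plates. 2) Compound, 48 h, 5 concentrations. 3) Linear interpolation between surrounding doses. 4) Unreached endpoint = highest concentration. The concentration for 50% growth inhibition is given as GI50. TGI is the concentration that stops growth completely.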

As for `O[C@H](CN1CC1)[C@@H](O)CN1CC1`, the GI50 in the assay with BT-549 breast was 12.6 µM; in the assay with HL-60(TB) leukemia it was 1.22 µM; in the assay on HT29 colon it was 10.2 µM; in the assay on NCI-H460 lung, 0.496 µM; in the assay on OVCAR-5 ovarian it was 11.2 µM; in the assay with SK-MEL-2 melanoma it was 41 µM. Also, the GI50 is 1.86 µM with SN12C renal, 7.13 µM in the assay with T-47D breast, 5.78 µM in the assay on U251 CNS and 11.6 µM in the assay on UACC-257 melanoma. The TGI in the assay on BT-549 breast is 60.9 µM; in the assay with HL-60(TB) leukemia, more than 100 µM; with HT29 colon, 26.6 µM; with NCI-H460 lung, 22.9 µM; in the assay with OVCAR-5 ovarian, 48 µM; in the assay with SK-MEL-2 melanoma, more than 100 µM. Also, the TGI is more than 100 µM in the assay on SN12C renal, 66.6 µM with T-47D breast, 45.6 µM in the assay on U251 CNS and 89.9 µM in the assay with UACC-257 melanoma.

Consider `CC(C)(O)CCC(O)C(C)(O)C1CCC2(O)C3=CC(=O)C4(O)CC(O)C(O)CC4(C)C3CCC12C` (stereo unspecified) (tested in a mixture with another compound), for which the TGI in the assay with BT-549 breast, in the assay on HL-60(TB) leukemia, in the assay on HT29 colon, in the assay with NCI-H460 lung, in the assay on OVCAR-5 ovarian and in the assay on SK-MEL-2 melanoma was more than 100 µM throughout. Also, the TGI in the assay on SN12C renal, with T-47D breast, with U251 CNS and in the assay with UACC-257 melanoma was more than 100 µM each time.

For the compound `O=C(Nc1cccc([N+](=O)[O-])c1)c1cc2ccccc2cc1O`, the GI50 in the assay on BT-549 breast was 1.55 µM; in the assay with HL-60(TB) leukemia, 0.59 µM; with HT29 colon it was 3.09 µM; in the assay with NCI-H460 lung, 1.87 µM; with OVCAR-5 ovarian it was 2.55 µM; with SK-MEL-2 melanoma, 0.876 µM. The GI50 with SN12C renal is 1.17 µM; in the assay on T-47D breast it was 2.47 µM; in the assay on U251 CNS it was 1.48 µM; in the assay with UACC-257 melanoma, 0.881 µM. Also, the TGI in the assay with BT-549 breast is 5.39 µM; in the assay on HL-60(TB) leukemia, 3.03 µM; with HT29 colon it was more than 30.7 µM; with NCI-H460 lung it was more than 100 µM; in the assay on OVCAR-5 ovarian it was 10.3 µM; in the assay with SK-MEL-2 melanoma it was 2.83 µM. Moreover, the TGI in the assay on SN12C renal is 7.78 µM; in the assay on T-47D breast, 7.88 µM; with U251 CNS, 9.27 µM; with UACC-257 melanoma it was 5.23 µM.

Turning to `COc1cc(N=Nc2cccc(S(N)(=O)=O)c2)c2ccccc2c1N`, the TGI is 20.7 µM in the assay with BT-549 breast; 23.6 µM in the assay on HL-60(TB) leukemia; 31 µM in the assay with HT29 colon; 25.7 µM in the assay with NCI-H460 lung; 33.3 µM in the assay with OVCAR-5 ovarian; 5.13 µM with SK-MEL-2 melanoma. Besides, the TGI in the assay on SN12C renal is 26.1 µM; in the assay with T-47D breast, more than 61.2 µM; with U251 CNS, 22.5 µM; in the assay on UACC-257 melanoma, 3.37 µM.

As to `C=C1C(=O)O[C@H]2[C@H]1CC/C(COC(=O)/C=C/c1c[nH]c3ccccc13)=C\CC[C@@]1(C)O[C@@H]21`, the GI50 with BT-549 breast was 0.175 µM; with HL-60(TB) leukemia, 0.256 µM; in the assay on HT29 colon, 0.195 µM; in the assay with NCI-H460 lung, 1.01 µM; in the assay on OVCAR-5 ovarian, 0.315 µM; in the assay with SK-MEL-2 melanoma it was 0.208 µM. Further, the GI50 was 0.197 µM in the assay with SN12C renal, 0.205 µM in the assay on T-47D breast, 0.212 µM in the assay with U251 CNS and 0.354 µM with UACC-257 melanoma. Further, the TGI in the assay with BT-549 breast was 0.384 µM; in the assay with HL-60(TB) leukemia, 0.717 µM; in the assay on HT29 colon, 0.416 µM; with NCI-H460 lung, 2.66 µM; in the assay with OVCAR-5 ovarian, 1.38 µM; with SK-MEL-2 melanoma, 0.412 µM. Besides, the TGI with SN12C renal was 0.478 µM; in the assay with T-47D breast it was 0.626 µM; in the assay with U251 CNS it was 0.528 µM; with UACC-257 melanoma, 1.46 µM.

Turning to `O=[N+]([O-])c1ccc(NC(=S)N/N=C(\c2ccccc2)c2ccccn2)cc1`, the TGI with BT-549 breast is 3.01 µM; in the assay on HL-60(TB) leukemia it was 4.32 µM and > 20.4 µM; in the assay with HT29 colon, 3.12 µM and 2.78 µM; with NCI-H460 lung, 3.36 µM and 11.9 µM; in the assay with OVCAR-5 ovarian, 2.58 µM and 4.58 µM; in the assay with SK-MEL-2 melanoma, 4.44 µM and 3.69 µM. For the same compound, the TGI in the assay on SN12C renal is 2.83 µM; in the assay on T-47D breast, 3.03 µM; in the assay on U251 CNS it was 3 µM and 2.68 µM; in the assay on UACC-257 melanoma, 2.06 µM and 3.26 µM. For the same compound, the GI50 with HL-60(TB) leukemia is 1.59 µM; in the assay on HT29 colon it was 1.56 µM; in the assay on NCI-H460 lung, 1.47 µM; with OVCAR-5 ovarian it was 0.0772 µM; in the assay with SK-MEL-2 melanoma it was 2.05 µM; in the assay on UACC-257 melanoma, 0.0225 µM.

With `O=S1(=O)CC(Br)C(Br)C1` (stereo unspecified), the GI50 was 5.4 µM with BT-549 breast; 3.5 µM in the assay with HL-60(TB) leukemia; 3.71 µM with HT29 colon; 20.4 µM in the assay on NCI-H460 lung; 15.8 µM in the assay on OVCAR-5 ovarian; 8.74 µM in the assay on SK-MEL-2 melanoma. Besides, the GI50 in the assay on SN12C renal is 4.07 µM; in the assay on T-47D breast, 3.16 µM; in the assay on U251 CNS, 7.28 µM; with UACC-257 melanoma it was 4.94 µM. The TGI stood at 18.5 µM in the assay with BT-549 breast; 8.75 µM in the assay on HL-60(TB) leukemia; 11.3 µM in the assay with HT29 colon; 61.8 µM with NCI-H460 lung; 54.9 µM with OVCAR-5 ovarian; 28.6 µM with SK-MEL-2 melanoma. Moreover, the TGI in the assay on SN12C renal came to 17.4 µM; in the assay with T-47D breast, 13.6 µM; in the assay with U251 CNS, 23.6 µM; in the assay on UACC-257 melanoma it was 51.2 µM.

In the case of `Cc1nn2c(/C=C3\C(=O)Nc4ccccc43)c(C)nc2s1`, the GI50 was more than 100 µM in the assay with BT-549 breast; 21 µM with HL-60(TB) leukemia; 5.32 µM with HT29 colon; 13.3 µM in the assay with NCI-H460 lung; 50.7 µM in the assay on OVCAR-5 ovarian; 27.6 µM with SK-MEL-2 melanoma. The GI50 was more than 100 µM in the assay on SN12C renal, 32 µM in the assay with T-47D breast, 71.9 µM with U251 CNS and more than 100 µM with UACC-257 melanoma. The TGI with BT-549 breast, in the assay on HL-60(TB) leukemia, in the assay on HT29 colon, in the assay with NCI-H460 lung, in the assay with OVCAR-5 ovarian and in the assay with SK-MEL-2 melanoma was more than 100 µM throughout. Besides, the TGI in the assay with SN12C renal, with T-47D breast, with U251 CNS and in the assay on UACC-257 melanoma was more than 100 µM in each case.

The values are drawn from PubChem BioAssay (NCI).
